Structure (SMILES) | melting point [°C]
CCn1cc(C(=O)O)c(=O)c2cc(F)c(N3CCN(S(=O)(=O)c4ccccc4)CC3)c(F)c21 | 234 to 235
COC(=O)c1ccc(OCCNC(=O)C2Cc3ccccc3N2S(=O)(=O)c2ccc(-c3ccc(F)cc3)cc2)cc1C(F)(F)F (stereo not drawn) | 62 to 70
CC(=O)NC1=CC(C)(C)Oc2ccc(C#N)cc21 | 146 to 147
CCCCCc1ccc(-c2nc(C)c(C(C)=NNC(=N)N)s2)cc1 | 210
COc1ccc2c(c1)CCC1C2CCC2(C)C(NC=O)CCC12 (stereo not drawn) | 252 to 253
Cc1c(S(=O)(=O)Nc2ccc(-c3nc(CO)cs3)cc2S(C)(=O)=O)sc2ccc(F)cc12 | 209 to 210
CCCCc1c(C)c2ccc(OCCCCl)cc2[nH]c1=O | 203
CC(=O)NC1CCN(c2nc(Nc3ccc(F)cc3F)c(C(=O)O)cc2F)C1 (stereo not drawn) | 232 to 234
CCOC(=O)C1=CC(OC)(OC)CCC1S(=O)(=O)Nc1ccc(F)cc1Cl (stereo not drawn) | 97 to 98
c1ccc(C(c2ccccc2)N2CCN(CCCCCCNc3ccc4ncnn4n3)CC2)cc1 | 130 to 132
COc1ccc2cc(-c3ccc(-n4nc(C)nc4C)c(Cl)c3)c(=O)oc2c1 | 219
Cc1c(/C=N/OCc2ccc(C(=O)O)c(Br)c2)c2ccccc2n1C | 165 to 166
COCC1CN(c2ccc3c(c2)CCC(CCC(F)(F)F)O3)C(=O)O1 (stereo not drawn) | 110 to 111
COc1ccccc1C(=O)N1CCCC2=C1CCc1cc(Cl)ccc12 | 139
COC(=O)c1cc(C(C)(C)C(=O)OC)ccc1N | 58 to 60
CC(=O)c1ccc(OCCCOc2cc(N)c(C)cc2Br)c(CCC(F)(F)F)c1O | 124 to 126
Cc1cc(OCCc2nc(-c3ccc(-c4ccccc4)cc3)oc2C)ccc1OC(C)(C)C(=O)O | 122 to 123
O=C(O)C1=Cc2cc(Cl)c(Oc3cccc(C(=O)O)c3)cc2OC1C(F)(F)F (stereo not drawn) | 288 to 289
CSc1nc(C)ccc1NC(=O)CCCCCCCCSc1nc2ccccc2[nH]1 | 73 to 75
COC1=C(OC)C(=O)C(CCCCCCCCCC(=O)N[C@@H](CCCCN)C(=O)O)=C(C)C1=O | 107
O=C(Nc1cnc2c(c1)OCCN2)c1cc2cc(F)ccc2n1Cc1cccc(F)c1 | 265 to 266
Cc1ccc(-c2nc3ccc(C(=O)O)cn3c2CN(C)C(=O)CC(C)C)cc1 | 227 to 229
COC(C)(CC(=O)NC12CC3CC(CC(C3)C1)C2)OC | 140
Nc1sc(-c2ccco2)c(CN(C2CCCCC2)C2CCCCC2)c1C(=O)c1ccc(Cl)cc1 | 158 to 160
COc1ccccc1Oc1cccc2c1NC(=O)C2SC (stereo not drawn) | 114

Structure (SMILES) | melting point [°C]
CC1=NN(c2ccc(C(=O)O)cc2)C(=O)C1=CNc1ccccc1C(C)C | 270
N#Cc1c(OCCOc2ccccc2)cccc1[N+](=O)[O-] | 129 to 138
COc1ccc(CNc2ncccc2C(=O)Nc2cccc(C(F)(F)F)c2)cn1 | 185
Cc1sc2[nH]c(=S)nc(N)c2c1C | > 260
COc1ncc(-c2nn(C(C)c3oc4ccccc4c(=O)c3-c3cccc(F)c3)c3ncnc(N)c23)cn1 (stereo not drawn) | 224 to 227
CCOC(=O)c1[nH]c2cc(Cl)cc(Cl)c2c1N(CC(=O)c1ccccc1)Cc1ccccc1 | 174 to 175
NC(=O)c1cc2n(n1)-c1ccc(Cl)cc1C(c1ccccc1)=NC2 | 216 to 218
O=C(NC1CCCCC1)NS(=O)(=O)c1ccc2c(c1)CCN(C(=O)N1CCCCC1)CC2 | 166 to 167
NN=C1CCc2ccccc21 | 84 to 86
Cn1c(CNCC(C)(C)O)cc2cc(NC(=O)c3ccc(OC[C@@H]4CCCO4)cc3F)ccc21 | 159 to 160
CCCCCCCCCCOc1ccc(OCc2ccccc2)c(C(=O)OC)c1 | 32 to 34
COC(=O)CN(NC(N)=O)c1ccc(OC)c(C)c1 | 174 to 176
CC(C)(C)OC(=O)[C@H]1CC[C@@H](c2ccccn2)N1C(=O)CNC(=O)Nc1cccc(C(=O)O)c1 (racemic) | 174
N=C(Nc1ccc(C2CCCC2)c(CN2CCC[C@H]2CO)c1)c1cccs1 | 132 to 133
COC(=Cc1ccc(-c2cccc(N(C)C(=O)Nc3ccccc3)c2)cc1)C(=O)O | 223
CC(C)(CCCSCCNS(=O)(=O)c1ccc(Cl)cc1)C(=O)O | 107 to 109
CCOc1ccccc1OS(N)(=O)=O | 62 to 65
Cc1cc(C#N)ccc1-c1cc(=O)c2c(O)cc(O)c([C@@H]3CCN(C)[C@H]3CO)c2o1 | 145 to 147
O=C1c2cccc([N+](=O)[O-])c2OC12CC2 | 131 to 134
CCC(C)C(C)C(=O)Nc1ccc2ncnc(NC=C(C(=O)OC)C(=O)OC)c2c1 (stereo not drawn) | 216 to 217
CC(C)(C)OC(=O)CN1C(=O)C(N2C(=O)c3ccccc3C2=O)CSCC1c1cccs1 (stereo not drawn) | 211 to 212
Nc1cccc(C(=O)Nc2cccc3cc(Br)cnc23)c1 | 209 to 211
COc1cc2ncnc(N3CCCc4ccccc43)c2cc1OC | 130 to 131
CC(C)CCN1C(=O)C2(COc3cc4c(cc32)OCCO4)c2ccccc21 (stereo not drawn) | 134 to 137
Cc1ccc([N+](=O)[O-])cc1Nc1cccc(Br)c1 | 114 to 116

Structure (SMILES) | melting point [°C]
Cc1nnc(CNC(=O)CN2C(=O)c3ccccc3C2=O)n1-c1ccc(Cl)cc1C(=O)c1ccccc1 | 251 to 253
O=C(O)CCc1cnoc1-c1ccc2c(c1)OCO2 | 150 to 151
C#CC1(COC(C)=O)OC(n2ccc(=O)[nH]c2=O)C(OC(C)=O)C1OC(C)=O (stereo not drawn) | 160 to 162
NC(=S)CN1CCCC1=S | 154 to 156
CC(=O)Nc1c(C(=O)C(C)(C)C)[nH]c2cc(Cl)ccc12 | 190 to 193
Cc1nnc2n1-c1sc(CCC(=O)N3CCOCC3)cc1C(c1ccccc1Cl)=NC2C (stereo not drawn) | 162 to 163
CCC(=CC(CNC(=O)c1cccnc1)=NO)C(C(C)C)[N+](=O)[O-] (stereo not drawn) | 141 to 142
O=C1CCN(Cc2cccc(C(F)(F)F)c2)CC1C(c1ccccc1)c1ccccc1 (stereo not drawn) | 128 to 129
CNc1ncnc(N2CCc3ccccc32)n1 | 185 to 187
Cc1ccc(-c2ccnc3c(C(N)=O)ncn23)cc1 | 263 to 266
c1ccc2c(c1)nc1n2CCCSC1 | 155 to 157
CCCCCCCCCCCC1CCC(O)C(=O)O1 (stereo not drawn) | 95 to 96
FC(F)(F)c1ccc(-c2nocc2CCl)cc1 | 84 to 85
CCOC(=O)c1cnn(-c2ccc(Cl)cc2)c1C | 55 to 56
N#Cc1cc2ccccc2cc1O | 188 to 189
COc1ccc2[nH]c(S(=O)Cc3ncc(C)c(N4CCCC4)c3Cl)nc2c1 (stereo not drawn) | 145 to 146
O=C(O)CNC(=O)c1nnc2ccc(NCCCN3CCC(OC(c4ccccc4)c4ccccc4)CC3)nn12 | 182 to 184
COc1ccc(C(O)CCN2CC=C(c3ccc(Cl)cc3)CC2)c(OC)c1 (stereo not drawn) | 112 to 114
COc1ccc(F)cc1C(C)(C)CC(O)(Cc1nc2cc(-c3ccccc3)ccc2o1)C(F)(F)F (stereo not drawn) | 103 to 104
Cc1cc(NC(=O)c2cccc(CCc3cc(Nc4ccccc4)n[nH]3)c2)ccc1C(C)C | 150 to 151
NS(=O)(=O)c1cc2[nH]c(-c3ccccc3)nc2cc1Cl | 314 to 316
CC(=O)OCc1ccc2oc(=O)c(C(=O)Oc3cc(F)ccc3[N+](=O)[O-])cc2c1 | 157 to 161
N#Cc1ccc(N(Cc2ccccc2)n2cnnc2)cc1-c1ccc(O)cc1 | 229 to 230
c1ccc2c(c1)CCN(Cc1nc3ccccc3[nH]1)C2 | 184 to 186
COc1cc2c(cc1C(F)(F)F)N(C(=O)Nc1ccc(C)c(-c3cnccc3C)c1)CC2 | 138 to 140

Structure (SMILES) | melting point [°C]
C=CCOC(=O)c1c(C)nc2c(cnn2CCC#CC)c1N | 114 to 115
CC(C)c1nc(Cl)c([N+](=O)[O-])c(Cl)n1 | 32
c1cc(NC2CC2)ccn1 | 111 to 112
Cc1cc2c(cc1Sc1ccc(C(=O)O)cc1)C(C)(C)CCC2(C)C | 253 to 254
COC(=O)C1OC(OC(=O)C(C)C)C(OC(=O)C(C)C)C(OC(=O)C(C)C)C1OC(=O)C(C)C (stereo not drawn) | 127
COc1cccc2c1nc(C(F)F)n2-c1nc(Nc2ccc(NS(C)(=O)=O)nc2)nc(N2CCOCC2)n1 | 302 to 306
CN(C)CC(=O)NCc1cccc(-c2cc3c(Nc4ccc(F)c(Cl)c4)ncnc3[nH]2)c1 | 272 to 273
COc1ccc2[nH]c(=O)c(-c3nnnn3Cc3cccc(OCc4ccc5ccccc5n4)c3)cc2c1 | 215 to 217
CCON(Cc1ccc(F)cc1)C(=O)C1=C(O)C(=O)N(C)C1 | 113 to 114
Cc1ccc(C)n1-c1ccc([C@@H](O)CN2C(=O)c3ccccc3C2=O)cn1 | 167 to 170
S=c1cc(-c2cnccn2)ss1 | 196
CC(C)(Nc1ccc(Cc2ccccc2)cc1)C(=O)O | 130
O=C1Nc2cccc(-c3ccc(O)cc3)c2/C1=C/c1ccc[nH]1 | 271 to 273
Nc1nc(-c2ccccc2)c(-c2ccnc(Nc3ccccc3)n2)s1 | 196 to 197
Nc1nc(-c2ccco2)nc2ccccc12 | 219 to 221
CN1CC(=O)C(C)(C)CC1=O | 52 to 54
CC(C)Cn1c(=O)n(C)c(=O)c2c(SCCC(C)O)c(Cc3cccc4ccccc34)sc21 (stereo not drawn) | 162 to 163
O=C(O)c1cc(-n2c(-c3ccccc3)cc3c2CCc2ccccc2-3)ccc1S | 260 to 262
CN(C)c1ccc([N+](=O)[O-])cn1 | 146 to 149
CCOC(=O)C1[C@@H]2[C@@H](O)[C@@H]3O[C@H](c4cccc(OC)c4)OC[C@H]3O[C@H]12 (stereo partly drawn) | 107
CCOC(=O)c1c(S)nc2cc(OC)c(OC)cc2c1-c1ccc(OC)c(OC)c1 | 265 to 266
Cc1cc(=O)oc2cc(NC(=O)C3C(=O)c4ccccc4S(=O)(=O)N3C)ccc12 (stereo not drawn) | > 285
CC(C)(C)OC(=O)NC1CCCCCC=CC2CC2(C(=O)NS(=O)(=O)C2CC2)NC(=O)C2CC(OC(=O)c3ccc(C#N)cc3)CN2C1=O (stereo not drawn) | 164 to 166

— a melting point compilation (Tetko et al.; mined from patent text by program, amines drawn as free bases though some values may be those of a salt)
